This series in a line: Stability of 1% crisaborole solution in 50% ethanol/citrate buffer at various pH. The following applies: for % peak purity: 1% solution, 50% ethanol, 40° C. for one month. It counts as physicochemical. As for the experimental part: The sample was stored in a closed, airtight glass container with headspace comprising no more than 5% by volume of the total usable volume of the container. Each container containing a sample was stored at a constant temperature of 40° C. in a standard laboratory incubator (for example, Memmert IF260PLUS Incubator). The storage period for each sample was […]. The chemical stability of the crisaborole in each sample after the storage period was measured by a HPLC method. The HPLC method was as follows: A 1% solution of crisaborole was prepared with 50% ethanol and a citrate buffer to pH 5.5. The system was then stored at 40° C. for one month under the conditions of Example 3 and gave an 84% peak purity. Equivalent solutions were prepared and tested at pH 4.5, 6.5, 7.5 and 8.5.

“And” between values parts separate entries of the source, which are not always exact repeats. Equal values may be shown once.

For `N#Cc1ccc(Oc2ccc3c(c2)COB3O)cc1` [crisaborole], the “pH at which chemical stability is highest” value (aqueous medium, pH 4.5 to 8.5 tested) was found to be 5.5. The “% peak purity” value (pH 4.5) is listed as 79.5%; the “% peak purity” value (pH 5.5, citrate buffer) is 84% and 84.1%; the “% peak purity” value (pH 6.5) is 79.8%; the “% peak purity” value (pH 7.5) was 72.1%; the “% peak purity” value (pH 8.5) is 51.3%.

For the origin of these results see patent US11744799B2, “Topical composition” (MC2 Therapeutics Limited, priority 2017, dated 2023).
